Laboratory results taken from paper PMC9267128, “New 2-[(4-Amino-6-N-substituted-1,3,5-triazin-2-yl)methylthio]-N-(imidazolidin-2-ylidene)-4-chloro-5-methylbenzenesulfonamide Derivatives, Design, Synthesis and Anticancer Evaluation” (International Journal of Molecular Sciences, 2022).

Columns and labels:
HCT-116 (colon cancer) = test: MTT cell viability assay, HCT-116; type: cell-based, human; settings: for IC50: Homo sapiens, HCT-116, 72 h, MTT assay, 72 h of incubation; for Selectivity Index (SI) HCT-116: IC50 value toward HaCaT cells/IC50 value toward HCT-116
In short: (§1)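 HCT-116 and HeLa cells in DMEM/10% FBS exposed 72 h to compounds over 1–100 µM. Viability by MTT (0.5 mg/mL, 2 h, 37 °C), formazan dissolved in DMSO and read at 550 nm; mean ± SD of at least three independent experiments.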

MCF-7 (breast cancer) = test: MTT cell viability assay, MCF-7; type: cell-based, human; settings: for IC50: Homo sapiens, MCF7, 72 h, MTT assay, 72 h of incubation; for Selectivity Index (SI) MCF-7: IC50 value toward HaCaT cells/IC50 value toward MCF-7
In short: (§2)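 Cells in DMEM with 10% FBS, 3 × 10^3 per well, exposed to compounds at 1–100 µM for 72 h at 37 °C. MTT at 0.5 mg/mL for 2 h, formazan dissolved in DMSO and read at 550 nm. Mean ± SD of at least three independent experiments, each in triplicate.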

[1] = test system: HaCaT (human keratinocyte cell line); test: MTT cell viability assay, non-cancerous HaCaT; type: cell-based; settings: Homo sapiens, HaCaT, 72 h, 72 h of incubation, non-cancerous keratinocytes
In short: as §2

HeLa (cervical cancer) = test: MTT cell viability assay, HeLa; type: cell-based, human; settings: for IC50: Homo sapiens, HeLa, MTT assay, 72 h of incubation; for Selectivity Index (SI) HeLa: IC50 value toward HaCaT cells/IC50 value toward HeLa
In short: as §1

Row | SMILES | IC50 (HCT-116 (colon cancer)) | IC50 (MCF-7 (breast cancer)) | IC50 [1] | IC50 (HeLa (cervical cancer)) | Selectivity Index (SI) HCT-116 (HCT-116 (colon cancer)) | Selectivity Index (SI) MCF-7 (MCF-7 (breast cancer)) | Selectivity Index (SI) HeLa (HeLa (cervical cancer))
1 | Cc1cc(S(=O)(=O)N=C2NCCN2Cc2cccc(C(F)(F)F)c2)c(SCc2nc(N)nc(N3CCN(c4ccc(Cl)c(Cl)c4)CC3)n2)cc1Cl [Compound 115] | 5.5 ± 0.2 µM | 6.5 ± 0.2 µM | 23 ± 0.5 µM | 12 ± 1 µM | – | – | –
2 | Cc1cc(S(=O)(=O)N=C2NCCN2Cc2ccc(C(F)(F)F)cc2)c(SCc2nc(N)nc(N3CCN(c4ccc(Cl)cc4)CC3)n2)cc1Cl [Compound 136] | 5 ± 0.1 µM | 6 ± 0.3 µM | 21 ± 1 µM | 10 ± 0.4 µM | – | – | –
3 | Cc1cc(S(=O)(=O)N=C2NCCN2Cc2ccc(F)cc2)c(SCc2nc(N)nc(N3CCc4ccccc43)n2)cc1Cl [Compound 83] | 10 ± 0.5 µM | 14 ± 1 µM | 32 ± 1 µM | 12 ± 3 µM | – | – | –
4 | COc1ccc(Nc2nc(N)nc(CSc3cc(Cl)c(C)cc3S(=O)(=O)N=C3NCCN3Cc3ccccc3)n2)cc1 [Compound 52] | 37 ± 0.5 µM | 64 ± 2 µM | 92 ± 3 µM | 61 ± 2 µM | – | – | –
5 | CC1=NN(c2nc(N)nc(CSc3cc(Cl)c(C)cc3S(=O)(=O)N=C3NCCN3Cc3ccccc3)n2)C(C)(C)C1 [Compound 47] | 19 ± 0.2 µM | 20 ± 0.4 µM | 45 ± 2 µM | 34 ± 0.3 µM | – | – | –
6 | Cc1cc(S(=O)(=O)N=C2NCCN2Cc2ccc(F)cc2)c(SCc2nc(N)nc(N3CCOCC3)n2)cc1Cl [Compound 82] | 19 ± 0.8 µM | 12 ± 0.1 µM | 54 ± 2 µM | 30 ± 1 µM | – | – | –
7 | COc1ccc(Nc2nc(N)nc(CSc3cc(Cl)c(C)cc3S(=O)(=O)N=C3NCCN3Cc3ccc(C(F)(F)F)cc3)n2)cc1 [Compound 126] | 11 ± 0.6 µM | 21 ± 1 µM | 37 ± 1 µM | 20 ± 1 µM | – | – | –
8 | Cc1cc(S(=O)(=O)N=C2NCCN2Cc2ccccc2)c(SCc2nc(N)nc(N3CCN(c4cccc(C(F)(F)F)c4)CC3)n2)cc1Cl [Compound 61] | 6.5 ± 0.1 µM | 9 ± 0.3 µM | 21 ± 1 µM | 10 ± 0.2 µM | – | – | –
9 | Cc1cc(S(=O)(=O)N=C2NCCN2Cc2cc(C(F)(F)F)cc(C(F)(F)F)c2)c(SCc2nc(N)nc(N3CCN(c4ccccc4F)CC3)n2)cc1Cl [Compound 152] | 6.5 ± 0.3 µM | 6.5 ± 0.3 µM | 29 ± 1 µM | 15.5 ± 1 µM | – | – | –
10 | Cc1cc(S(=O)(=O)N=C2NCCN2Cc2ccc(F)cc2)c(SCc2nc(N)nc(N3CCN(c4ccccc4F)CC3)n2)cc1Cl [Compound 94] | 9 ± 0.2 µM | 14 ± 0.5 µM | 25 ± 1 µM | 12 ± 1 µM | – | – | –
11 | Cc1cc(S(=O)(=O)N=C2NCCN2Cc2ccc(Br)cc2)c(SCc2nc(N)nc(N3CCN(c4ccc(Cl)cc4)CC3)n2)cc1Cl [Compound 109] | 23 ± 1 µM | 22 ± 0.5 µM | 55 ± 2 µM | 36 ± 2 µM | – | – | –
12 | Cc1cc(S(=O)(=O)N=C2NCCN2Cc2ccccc2)c(SCc2nc(N)nc(N3CCN(c4ccc(F)cc4)CC3)n2)cc1Cl [Compound 58] | 11 ± 0.3 µM | 17 ± 1 µM | 29 ± 1 µM | 14 ± 2 µM | – | – | –
13 | Cc1cc(S(=O)(=O)N=C2NCCN2Cc2ccc(C(F)(F)F)cc2)c(SCc2nc(N)nc(N(C)c3ccc(Cl)cc3)n2)cc1Cl [Compound 129] | 11 ± 0.1 µM | 14 ± 0.5 µM | 31 ± 1 µM | 15 ± 1 µM | – | – | –
14 | Cc1cc(S(=O)(=O)N=C2NCCN2Cc2cccc(C(F)(F)F)c2)c(SCc2nc(N)nc(N3CCN(c4ccc(C(F)(F)F)cc4)CC3)n2)cc1Cl [Compound 114] | 5 ± 0.2 µM | 6.5 ± 0.3 µM | 27 ± 1 µM | 12 ± 0.3 µM | 5.4 | 4.1 | 2.2
15 | Cc1cc(S(=O)(=O)N=C2NCCN2Cc2ccccc2)c(SCc2nc(N)nc(N3CCN(c4ccccc4F)CC3)n2)cc1Cl [Compound 59] | 13 ± 0.3 µM | 18 ± 1 µM | 30 ± 1 µM | 15 ± 1 µM | – | – | –
16 | Cc1cc(S(=O)(=O)N=C2NCCN2Cc2ccc(F)cc2)c(SCc2nc(N)nc(N3CCN(c4ccc(C(F)(F)F)cc4)CC3)n2)cc1Cl [Compound 95] | 7 ± 0.3 µM | 7 ± 0.1 µM | 18 ± 1 µM | 8 ± 0.4 µM | – | – | –
17 | Cc1cc(S(=O)(=O)N=C2NCCN2Cc2ccccc2)c(SCc2nc(N)nc(N(C)c3ccc(Cl)cc3)n2)cc1Cl [Compound 55] | 7 ± 0.1 µM | 10 ± 0.2 µM | 39 ± 2 µM | 13 ± 0.1 µM | 5.5 | 3.9 | 3.0
18 | Cc1cc(S(=O)(=O)N=C2NCCN2Cc2ccc(F)cc2)c(SCc2nc(N)nc(N3CCN(c4ccc(Cl)c(Cl)c4)CC3)n2)cc1Cl [Compound 98] | 7 ± 0.1 µM | 7 ± 0.4 µM | 18 ± 1 µM | 8 ± 0.4 µM | – | – | –

Row | SMILES | IC50 (HCT-116 (colon cancer)) | IC50 (MCF-7 (breast cancer)) | IC50 [1] | IC50 (HeLa (cervical cancer)) | Selectivity Index (SI) HCT-116 (HCT-116 (colon cancer)) | Selectivity Index (SI) MCF-7 (MCF-7 (breast cancer)) | Selectivity Index (SI) HeLa (HeLa (cervical cancer))
19 | Cc1cc(S(=O)(=O)N=C2NCCN2Cc2ccc(C(F)(F)F)cc2)c(SCc2nc(N)nc(N(C)c3ccccc3)n2)cc1Cl [Compound 128] | 10 ± 0.3 µM | 14 ± 0.5 µM | 33 ± 1 µM | 15 ± 0.4 µM | – | – | –
20 | Cc1cc(S(=O)(=O)N=C2NCCN2Cc2cc(C(F)(F)F)cc(C(F)(F)F)c2)c(SCc2nc(N)nc(Nc3ccc(C(F)(F)F)cc3)n2)cc1Cl [Compound 147] | 6.5 ± 0.3 µM | 8 ± 0.2 µM | 28 ± 1 µM | 15 ± 1 µM | – | – | –
21 | Cc1cc(S(=O)(=O)N=C2NCCN2Cc2ccc(Br)cc2)c(SCc2nc(N)nc(N3CCN(c4cccc(C(F)(F)F)c4)CC3)n2)cc1Cl [Compound 108] | 10.5 ± 0.5 µM | 11 ± 0.5 µM | 24 ± 1 µM | 11 ± 0.5 µM | – | – | –
22 | Cc1cc(S(=O)(=O)N=C2NCCN2Cc2ccc(F)cc2)c(SCc2nc(N)nc(N3CCN(c4cccc(Cl)c4)CC3)n2)cc1Cl [Compound 97] | 6 ± 0.2 µM | 7 ± 0.4 µM | 24 ± 1 µM | 9 ± 0.3 µM | – | – | –
23 | Cc1cc(S(=O)(=O)N=C2NCCCN2Cc2ccc(C(F)(F)F)cc2)c(SCc2nc(N)nc(N3CCN(c4cccc(C(F)(F)F)c4)CC3)n2)cc1Cl [Compound 160] | 10.5 ± 0.4 µM | 12 ± 0.5 µM | 23 ± 1 µM | 8.5 ± 0.3 µM | – | – | –
24 | Cc1cc(S(=O)(=O)N=C2NCCCN2Cc2ccc(C(F)(F)F)cc2)c(SCc2nc(N)nc(N3CCCc4ccccc43)n2)cc1Cl [Compound 158] | 5 ± 0.3 µM | 8 ± 0.4 µM | 17 ± 1 µM | 6 ± 0.3 µM | – | – | –
25 | Cc1cc(S(=O)(=O)N=C2NCCN2)c(SCc2nc(N)nc(N3CC=C(c4ccc(F)cc4)CC3)n2)cc1Cl [Compound 44] | 14 ± 0.5 µM | 16 ± 0.5 µM | 28 ± 1 µM | 14 ± 0.5 µM | – | – | –
26 | Cc1cc(S(=O)(=O)N=C2NCCN2Cc2ccc(C(F)(F)F)cc2)c(SCc2nc(N)nc(N3CCc4ccccc43)n2)cc1Cl [Compound 120] | 9 ± 0.5 µM | 11 ± 0.1 µM | 24 ± 1 µM | 12 ± 0.5 µM | – | – | –
27 | Cc1cc(S(=O)(=O)N=C2NCCN2Cc2ccccc2)c(SCc2nc(N)nc(N3CCCc4ccccc43)n2)cc1Cl [Compound 49] | 14 ± 0.1 µM | 17 ± 0.3 µM | 38 ± 1 µM | 24 ± 0.5 µM | – | – | –
28 | Cc1cc(S(=O)(=O)N=C2NCCN2Cc2ccc(C(F)(F)F)cc2)c(SCc2nc(N)nc(N3CCN(c4ccc(F)cc4)CC3)n2)cc1Cl [Compound 132] | 8 ± 0.2 µM | 17 ± 0.4 µM | 26 ± 1 µM | 16 ± 1 µM | – | – | –
29 | Cc1cc(S(=O)(=O)N=C2NCCN2Cc2ccccc2)c(SCc2nc(N)nc(Nc3ccccc3)n2)cc1Cl [Compound 50] | 18 ± 0.2 µM | 43 ± 1 µM | 51 ± 2 µM | 35 ± 2 µM | – | – | –
30 | Cc1cc(S(=O)(=O)N=C2NCCN2Cc2cccc3ccccc23)c(SCc2nc(N)nc(N3CCN(c4ccccc4)CC3)n2)cc1Cl [Compound 77] | 40 ± 1 µM | 29 ± 1 µM | 220 ± 11 µM | 110 ± 5 µM | – | – | –
31 | Cc1cc(S(=O)(=O)N=C2NCCN2Cc2cccc3ccccc23)c(SCc2nc(N)nc(N3CCN(Cc4ccccc4)CC3)n2)cc1Cl [Compound 81] | 8.4 ± 0.3 µM | 8 ± 0.5 µM | 240 ± 12 µM | 63 ± 1 µM | – | – | –
32 | Cc1cc(S(=O)(=O)N=C2NCCN2Cc2ccc(F)cc2)c(SCc2nc(N)nc(Nc3ccc(C(F)(F)F)cc3)n2)cc1Cl [Compound 87] | 10 ± 0.4 µM | 7 ± 0.3 µM | 34 ± 1 µM | 15 ± 1 µM | – | – | –
33 | Cc1cc(S(=O)(=O)N=C2NCCN2Cc2cc(C(F)(F)F)cc(C(F)(F)F)c2)c(SCc2nc(N)nc(N3CCN(Cc4ccccc4)CC3)n2)cc1Cl [Compound 156] | 4.8 ± 0.1 µM | 7.5 ± 0.4 µM | 17 ± 1 µM | 5.5 ± 0.2 µM | – | – | –
34 | Cc1cc(S(=O)(=O)N=C2NCCN2Cc2ccccc2)c(SCc2nc(N)nc(Nc3ccc(C(F)(F)F)cc3)n2)cc1Cl [Compound 51] | 19 ± 0.6 µM | 10 ± 0.5 µM | 220 ± 12 µM | 15 ± 1 µM | – | – | –
35 | Cc1cc(S(=O)(=O)N=C2NCCN2Cc2ccc(Br)cc2)c(SCc2nc(N)nc(N3CCN(c4ccc(F)cc4)CC3)n2)cc1Cl [Compound 107] | 8.5 ± 0.3 µM | 7 ± 0.2 µM | 76 ± 4 µM | 58 ± 2 µM | – | – | –
36 | COc1ccc(N2CCN(c3nc(N)nc(CSc4cc(Cl)c(C)cc4S(=O)(=O)N=C4NCCN4)n3)CC2)cc1 [Compound 40] | 21 ± 0.5 µM | 28 ± 2 µM | 45 ± 3 µM | 23 ± 1 µM | – | – | –
